Values after ≈ are worked out from the molar mass of the structure shown.
How the values were obtained:
[1] = target: T1, Disintegrin and metalloproteinase domain-containing protein 17 (Homo sapiens, UniProt P78536); test: Inhibition of recombinant human TACE catalytic domain using Mca-Pro-Leu-Ala-Gln-Ala-Val-Dpa-Arg-Ser-Ser-Ser-Arg-NH2 as substrate after 2 hrs by fluorescence assay
TK6 [2] = test: Genotoxicity in human TK6 cells in absence of rat S9 fraction by Giemsa staining based micronucleus assay; format: toxicity, cell-based
[3] = target: Voltage-gated inwardly rectifying potassium channel KCNH2 (Homo sapiens, UniProt Q12809); test: Inhibition of human ERG expressed in CHO-K1 cells assessed as reduction in tail current amplitude by patch clamp assay; format: cell-based
Sequence of Voltage-gated inwardly rectifying potassium channel KCNH2 (Q12809 whole entry, the tested form may be a part): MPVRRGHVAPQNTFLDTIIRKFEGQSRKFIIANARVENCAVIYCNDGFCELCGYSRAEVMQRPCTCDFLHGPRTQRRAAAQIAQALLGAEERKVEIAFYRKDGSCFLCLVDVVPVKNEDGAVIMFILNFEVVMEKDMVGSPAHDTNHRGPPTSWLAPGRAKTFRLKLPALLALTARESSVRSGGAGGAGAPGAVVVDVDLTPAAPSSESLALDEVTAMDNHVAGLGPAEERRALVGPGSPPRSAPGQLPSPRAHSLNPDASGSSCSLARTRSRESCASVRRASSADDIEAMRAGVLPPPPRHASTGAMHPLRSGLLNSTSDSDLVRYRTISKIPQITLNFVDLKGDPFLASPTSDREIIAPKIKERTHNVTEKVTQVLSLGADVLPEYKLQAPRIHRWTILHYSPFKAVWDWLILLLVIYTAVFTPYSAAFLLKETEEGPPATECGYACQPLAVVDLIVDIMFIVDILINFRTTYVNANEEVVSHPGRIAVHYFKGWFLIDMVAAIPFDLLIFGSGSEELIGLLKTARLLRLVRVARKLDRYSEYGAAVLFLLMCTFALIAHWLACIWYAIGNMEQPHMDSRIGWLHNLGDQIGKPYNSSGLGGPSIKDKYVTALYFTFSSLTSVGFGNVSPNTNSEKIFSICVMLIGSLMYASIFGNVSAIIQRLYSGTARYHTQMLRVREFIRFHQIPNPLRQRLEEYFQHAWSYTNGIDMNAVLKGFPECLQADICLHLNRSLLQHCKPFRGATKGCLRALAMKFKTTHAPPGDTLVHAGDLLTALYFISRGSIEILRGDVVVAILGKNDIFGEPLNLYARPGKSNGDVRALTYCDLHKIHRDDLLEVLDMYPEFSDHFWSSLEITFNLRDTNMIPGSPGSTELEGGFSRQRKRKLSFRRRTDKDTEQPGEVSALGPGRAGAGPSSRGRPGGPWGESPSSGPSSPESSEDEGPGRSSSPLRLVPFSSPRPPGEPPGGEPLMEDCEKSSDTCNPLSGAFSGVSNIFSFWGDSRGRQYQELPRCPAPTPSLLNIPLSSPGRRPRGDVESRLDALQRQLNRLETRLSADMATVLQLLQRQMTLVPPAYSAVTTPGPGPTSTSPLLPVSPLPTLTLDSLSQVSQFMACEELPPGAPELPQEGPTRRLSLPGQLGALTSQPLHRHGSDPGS

[4] = target: T1, Disintegrin and metalloproteinase domain-containing protein 17; test: Inhibition of TACE in NHEK assessed as reduction in LPS/TPA-stimulated TNFalpha production preincubated for 1 hr followed by LPS/TPA stimulation for 24 hrs by HTRF assay
[5] = Half life in human neonatal keratinocytes at 1 uM by LC-MS/MS analysis; format: ADME, cell-based
[6] = target: T2, Disintegrin and metalloproteinase domain-containing protein 9 (Homo sapiens, UniProt Q13443); test: Inhibition of ADAM9 (unknown origin)
T2 sequence (Q13443 whole entry): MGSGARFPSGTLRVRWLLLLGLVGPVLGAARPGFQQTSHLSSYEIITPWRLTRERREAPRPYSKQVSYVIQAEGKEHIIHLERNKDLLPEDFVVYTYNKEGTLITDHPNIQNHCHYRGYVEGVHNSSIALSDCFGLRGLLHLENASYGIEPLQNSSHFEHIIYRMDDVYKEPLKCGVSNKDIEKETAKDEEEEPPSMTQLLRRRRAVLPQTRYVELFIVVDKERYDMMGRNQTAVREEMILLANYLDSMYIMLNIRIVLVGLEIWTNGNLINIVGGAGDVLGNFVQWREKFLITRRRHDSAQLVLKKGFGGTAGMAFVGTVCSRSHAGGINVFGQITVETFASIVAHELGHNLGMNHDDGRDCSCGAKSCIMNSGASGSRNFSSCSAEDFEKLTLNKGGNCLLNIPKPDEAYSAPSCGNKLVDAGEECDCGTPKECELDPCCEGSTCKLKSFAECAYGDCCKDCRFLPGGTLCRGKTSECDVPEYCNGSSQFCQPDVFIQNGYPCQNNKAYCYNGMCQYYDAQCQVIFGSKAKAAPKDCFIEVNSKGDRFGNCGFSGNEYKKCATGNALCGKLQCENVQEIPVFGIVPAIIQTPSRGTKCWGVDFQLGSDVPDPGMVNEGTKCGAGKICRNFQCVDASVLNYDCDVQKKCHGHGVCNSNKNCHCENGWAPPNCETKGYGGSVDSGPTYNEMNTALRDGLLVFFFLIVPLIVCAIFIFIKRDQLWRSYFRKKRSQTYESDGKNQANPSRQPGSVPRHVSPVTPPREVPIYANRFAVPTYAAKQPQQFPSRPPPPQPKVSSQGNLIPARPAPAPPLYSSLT

TK6 [7] = test: Genotoxicity in human TK6 cells in presence of rat S9 fraction by Giemsa staining based micronucleus assay; format: toxicity, cell-based
[8] = Solubility of the compound in propylene glycol/ethanol96 at 30 mg/ml after 24 hrs by UV-spectrometric analysis; format: physicochemical; conditions: propylene glycol/ethanol96
Stromelysin-1 = Stromelysin-1 (Homo sapiens, UniProt P08254); test: Inhibition of MMP3 (unknown origin)
Sequence of Stromelysin-1 (P08254 whole entry): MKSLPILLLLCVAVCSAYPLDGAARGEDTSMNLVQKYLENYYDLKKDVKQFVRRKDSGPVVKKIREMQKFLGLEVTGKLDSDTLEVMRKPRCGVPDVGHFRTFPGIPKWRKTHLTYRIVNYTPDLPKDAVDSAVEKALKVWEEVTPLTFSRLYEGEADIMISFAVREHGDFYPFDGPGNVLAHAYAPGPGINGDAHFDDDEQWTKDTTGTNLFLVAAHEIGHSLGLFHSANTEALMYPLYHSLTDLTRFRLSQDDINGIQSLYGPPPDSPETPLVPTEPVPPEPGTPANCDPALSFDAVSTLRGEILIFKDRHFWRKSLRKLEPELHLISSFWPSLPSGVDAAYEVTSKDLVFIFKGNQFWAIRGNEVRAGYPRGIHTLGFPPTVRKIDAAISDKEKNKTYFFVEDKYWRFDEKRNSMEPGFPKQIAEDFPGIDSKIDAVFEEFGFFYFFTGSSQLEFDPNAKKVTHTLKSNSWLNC

[9] = Intrinsic clearance in human hepatocytes assessed per million cells at 1 uM by LC-MS/MS analysis; format: ADME, cell-based, Hepatocyte; conditions: human hepatocytes, read-out: CLH
Matrilysin = target: T3, Matrilysin (Homo sapiens, UniProt P09237); test: Inhibition of MMP7 (unknown origin)
T3 sequence (P09237 whole entry): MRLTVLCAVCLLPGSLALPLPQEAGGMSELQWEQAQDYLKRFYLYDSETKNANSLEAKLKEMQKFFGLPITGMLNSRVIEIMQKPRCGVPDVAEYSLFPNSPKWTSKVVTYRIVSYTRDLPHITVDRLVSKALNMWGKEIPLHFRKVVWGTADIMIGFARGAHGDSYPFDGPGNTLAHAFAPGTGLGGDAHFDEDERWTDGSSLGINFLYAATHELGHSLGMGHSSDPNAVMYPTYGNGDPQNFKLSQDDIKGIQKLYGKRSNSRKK

[10] = Aqueous solubility of the compound in PBS at pH 7.4 at 20 degC after 24 hrs by HPLC analysis; format: physicochemical
Neutrophil collagenase = Neutrophil collagenase (Homo sapiens, UniProt P22894); test: Inhibition of MMP8 (unknown origin)
Sequence of Neutrophil collagenase (P22894 whole entry, the tested form may be a part): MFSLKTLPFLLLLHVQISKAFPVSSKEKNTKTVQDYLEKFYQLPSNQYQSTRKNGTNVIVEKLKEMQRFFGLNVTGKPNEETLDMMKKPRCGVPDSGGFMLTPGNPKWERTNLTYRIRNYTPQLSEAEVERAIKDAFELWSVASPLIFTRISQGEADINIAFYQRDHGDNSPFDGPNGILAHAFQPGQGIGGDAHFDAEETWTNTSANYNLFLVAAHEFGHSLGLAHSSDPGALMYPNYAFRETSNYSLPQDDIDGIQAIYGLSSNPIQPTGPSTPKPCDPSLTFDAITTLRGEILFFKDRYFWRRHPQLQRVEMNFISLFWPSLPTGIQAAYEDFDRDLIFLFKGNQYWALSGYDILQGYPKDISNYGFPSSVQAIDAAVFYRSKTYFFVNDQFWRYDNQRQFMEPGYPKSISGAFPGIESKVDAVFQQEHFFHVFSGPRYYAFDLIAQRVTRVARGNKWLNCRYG

Interstitial collagenase = target: T4, Interstitial collagenase (Homo sapiens, UniProt P03956); test: Inhibition of recombinant human MMP1 catalytic domain using Mca-Pro-Leu-Gly-Leu-Dpa-Ala-Arg-NH2 as substrate after 10 mins by fluorescence assay
T4 sequence (P03956 whole entry): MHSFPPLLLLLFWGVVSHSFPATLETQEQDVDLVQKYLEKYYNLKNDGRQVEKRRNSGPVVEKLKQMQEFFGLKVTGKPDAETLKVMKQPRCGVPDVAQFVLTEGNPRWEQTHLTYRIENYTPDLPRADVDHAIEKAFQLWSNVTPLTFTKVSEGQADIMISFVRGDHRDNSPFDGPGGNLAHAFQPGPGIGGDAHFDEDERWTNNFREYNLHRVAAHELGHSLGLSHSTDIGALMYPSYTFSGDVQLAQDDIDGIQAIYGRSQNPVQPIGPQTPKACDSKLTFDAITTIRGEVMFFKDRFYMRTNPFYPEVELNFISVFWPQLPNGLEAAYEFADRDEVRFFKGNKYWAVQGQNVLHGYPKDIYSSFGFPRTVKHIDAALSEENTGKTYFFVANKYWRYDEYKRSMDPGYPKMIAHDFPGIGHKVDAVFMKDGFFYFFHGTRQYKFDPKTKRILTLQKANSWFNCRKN

Salmonella typhimurium [11] = test: Mutagenicity in Salmonella typhimurium TA100 in presence of rat S9 fraction by Ames test; format: toxicity, organism-based; conditions: salmonella enterica subsp. enterica serovar typhimurium
[12] = Photoirritancy factor, ratio of EC50 for human neonatal keratinocytes under dark condition to EC50 for human neonatal keratinocytes under 5 J/cm2 UV light exposure; format: toxicity; conditions: read-out: Ratio EC50
[13] = target: Matrix metalloproteinase-9 (Homo sapiens, UniProt P14780); test: Inhibition of MMP9 (unknown origin)
Sequence of Matrix metalloproteinase-9 (P14780 whole entry): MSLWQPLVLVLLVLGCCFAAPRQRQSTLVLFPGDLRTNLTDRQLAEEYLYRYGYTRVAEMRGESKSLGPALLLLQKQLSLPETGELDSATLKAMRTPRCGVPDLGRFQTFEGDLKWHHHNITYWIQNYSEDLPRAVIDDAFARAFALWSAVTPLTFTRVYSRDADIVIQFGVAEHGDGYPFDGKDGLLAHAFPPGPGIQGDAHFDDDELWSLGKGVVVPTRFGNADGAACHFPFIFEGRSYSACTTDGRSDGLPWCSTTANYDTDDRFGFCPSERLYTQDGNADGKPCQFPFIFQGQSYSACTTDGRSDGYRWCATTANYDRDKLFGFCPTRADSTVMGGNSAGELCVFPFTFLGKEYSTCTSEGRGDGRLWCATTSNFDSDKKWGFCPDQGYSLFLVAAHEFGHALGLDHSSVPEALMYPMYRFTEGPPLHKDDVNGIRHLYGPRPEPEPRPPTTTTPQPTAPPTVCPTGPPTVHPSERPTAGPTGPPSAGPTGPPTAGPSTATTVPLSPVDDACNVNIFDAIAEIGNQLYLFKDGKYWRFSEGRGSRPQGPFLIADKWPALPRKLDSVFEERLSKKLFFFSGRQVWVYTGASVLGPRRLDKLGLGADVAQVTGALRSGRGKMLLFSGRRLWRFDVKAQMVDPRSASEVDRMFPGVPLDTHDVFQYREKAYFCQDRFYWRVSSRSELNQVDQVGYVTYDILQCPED

[14] = target: Macrophage metalloelastase (Homo sapiens, UniProt P39900); test: Inhibition of MMP12 (unknown origin)
Sequence of Macrophage metalloelastase (P39900 whole entry): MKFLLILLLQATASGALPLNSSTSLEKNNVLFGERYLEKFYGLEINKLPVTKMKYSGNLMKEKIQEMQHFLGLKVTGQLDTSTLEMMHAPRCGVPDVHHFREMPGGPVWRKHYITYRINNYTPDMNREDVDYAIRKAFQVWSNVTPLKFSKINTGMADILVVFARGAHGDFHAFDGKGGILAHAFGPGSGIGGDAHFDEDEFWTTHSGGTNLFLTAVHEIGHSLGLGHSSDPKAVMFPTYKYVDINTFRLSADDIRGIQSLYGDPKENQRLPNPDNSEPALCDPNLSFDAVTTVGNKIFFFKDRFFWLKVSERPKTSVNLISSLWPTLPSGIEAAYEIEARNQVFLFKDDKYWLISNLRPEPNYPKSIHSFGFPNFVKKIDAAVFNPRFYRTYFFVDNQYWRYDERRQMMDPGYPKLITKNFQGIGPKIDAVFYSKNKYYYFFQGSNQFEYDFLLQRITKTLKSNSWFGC

[15] = target: Matrix metalloproteinase-14 (Homo sapiens, UniProt P50281); test: Inhibition of MMP14 (unknown origin)
Collagenase 3 = Collagenase 3 (Homo sapiens, UniProt P45452); test: Inhibition of MMP13 (unknown origin)
[16] = target: 72 kDa type IV collagenase (Homo sapiens, UniProt P08253); test: Inhibition of MMP2 (unknown origin)
Sequence of 72 kDa type IV collagenase (P08253 whole entry, the tested form may be a part): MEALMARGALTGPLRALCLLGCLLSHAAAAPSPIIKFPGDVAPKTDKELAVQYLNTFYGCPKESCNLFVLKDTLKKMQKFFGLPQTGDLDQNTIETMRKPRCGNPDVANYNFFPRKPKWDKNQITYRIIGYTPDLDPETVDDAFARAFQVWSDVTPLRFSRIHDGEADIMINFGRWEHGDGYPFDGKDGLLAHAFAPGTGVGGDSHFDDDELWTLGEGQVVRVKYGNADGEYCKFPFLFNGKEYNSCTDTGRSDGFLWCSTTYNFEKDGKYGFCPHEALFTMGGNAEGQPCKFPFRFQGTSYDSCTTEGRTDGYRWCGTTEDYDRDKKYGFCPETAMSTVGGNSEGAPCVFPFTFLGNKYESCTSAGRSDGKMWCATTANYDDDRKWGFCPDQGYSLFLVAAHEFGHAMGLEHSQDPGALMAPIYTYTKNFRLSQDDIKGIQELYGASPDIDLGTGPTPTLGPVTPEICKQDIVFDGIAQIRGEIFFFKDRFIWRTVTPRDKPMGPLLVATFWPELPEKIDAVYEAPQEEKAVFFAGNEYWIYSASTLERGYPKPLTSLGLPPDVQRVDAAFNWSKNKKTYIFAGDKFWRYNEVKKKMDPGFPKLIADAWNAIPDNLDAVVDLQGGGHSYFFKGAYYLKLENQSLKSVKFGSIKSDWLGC

[17] = target: T1, Disintegrin and metalloproteinase domain-containing protein 17; test: Inhibition of TACE in human PBMC assessed as reduction in LPS-induced TNFalpha production incubated overnight by HTRF assay; format: cell-based
[18] = Stability of the compound in propylene glycol/ethanol96 at 0.1 mg/ml measured up to 3 months by HPLC analysis; format: physicochemical; conditions: read-out: Stability
Salmonella typhimurium [19] = test: Mutagenicity in Salmonella typhimurium TA98 in absence of rat S9 fraction by Ames test; format: toxicity, organism-based; conditions: salmonella enterica subsp. enterica serovar typhimurium

T1 sequence (P78536 whole entry, the tested form may be a part): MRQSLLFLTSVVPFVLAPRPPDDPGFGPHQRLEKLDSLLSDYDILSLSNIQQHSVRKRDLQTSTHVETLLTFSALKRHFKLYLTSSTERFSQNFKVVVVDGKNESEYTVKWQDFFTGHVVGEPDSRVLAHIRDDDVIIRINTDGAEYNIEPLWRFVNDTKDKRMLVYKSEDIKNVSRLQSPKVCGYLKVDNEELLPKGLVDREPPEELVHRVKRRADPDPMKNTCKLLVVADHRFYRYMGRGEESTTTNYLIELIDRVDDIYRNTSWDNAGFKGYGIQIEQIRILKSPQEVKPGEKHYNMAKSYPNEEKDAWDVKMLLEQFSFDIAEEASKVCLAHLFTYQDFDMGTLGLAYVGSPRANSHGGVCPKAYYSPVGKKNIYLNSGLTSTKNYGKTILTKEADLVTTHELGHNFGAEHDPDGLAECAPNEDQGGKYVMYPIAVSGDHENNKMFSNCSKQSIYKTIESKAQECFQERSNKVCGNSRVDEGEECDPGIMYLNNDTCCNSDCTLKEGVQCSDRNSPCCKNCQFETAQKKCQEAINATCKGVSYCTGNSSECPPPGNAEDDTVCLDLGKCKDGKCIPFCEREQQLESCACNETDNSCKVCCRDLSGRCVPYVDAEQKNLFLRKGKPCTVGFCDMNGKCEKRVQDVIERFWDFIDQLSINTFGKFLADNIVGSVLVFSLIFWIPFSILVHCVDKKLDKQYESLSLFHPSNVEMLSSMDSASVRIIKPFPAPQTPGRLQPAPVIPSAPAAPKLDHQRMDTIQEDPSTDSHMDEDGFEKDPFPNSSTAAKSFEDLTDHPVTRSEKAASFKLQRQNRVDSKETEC

Row | Structure (SMILES) | IC50 [1] [nM] | Activity (TK6 [2]) | IC50 [3] [nM] | IC50 [4] [nM] | half-life at 1 µM [5] [h] | IC50 [6] [nM] | Activity (TK6 [7]) | solubility at 24 h [8] [mM] | IC50 (Stromelysin-1) [nM] | hepatocyte CLint at 1 µM [9] [µL/min/1e6 cells] | IC50 (Matrilysin) [nM] | solubility at 24 h [10] [mM] | IC50 (Neutrophil collagenase) [nM] | IC50 (Interstitial collagenase) [nM] | Activity (Salmonella typhimurium [11]) | selectivity ratio [12] | IC50 [13] [nM] | IC50 [14] [nM] | IC50 [15] [nM] | IC50 (Collagenase 3) [nM] | other results
1 | Cc1cc(COc2ccc(S(=O)(=O)N(C)C3(C(=O)NO)CN(C(=O)CC(C)C)C3)cc2)c2ccccc2n1 | 7 | Non-Toxic | > 100000 | 20 | > 24 | 480 | Non-Toxic | 45 (≈ 24.3 mg/mL) | 90 | 14 | 210 | 0.062 (≈ 0.0335 mg/mL) | 3700 | 4600 | Non-Toxic | 1 | 2200 | 6 | 4400 | 1200 | IC50 [16]: 1000 nM; IC50 [17]: 33 nM; remaining at 0.1 mg/ml [18]: 99%; Activity (Salmonella typhimurium [19]): Non-Toxic
2 | Cc1cc(COc2ccc(S(=O)(=O)N(C)C3(C(=O)NO)CN(C(=O)C(C)C)C3)cc2)c2ccccc2n1 | 4 | Non-Toxic | > 100000 | 3 | > 24 | 90 | Non-Toxic | 56 to 57 (≈ 29.5 to 30 mg/mL) | 90 | 8 | 180 | 0.084 (≈ 0.0442 mg/mL) | 2600 | 4500 | Non-Toxic | 1 | 2100 | 13 | 6500 | 1300 | IC50 [16]: 890 nM; IC50 [17]: 9 nM; remaining at 0.1 mg/ml [18]: 99%; Activity (Salmonella typhimurium [19]): Non-Toxic

Source: ChEMBL document CHEMBL4184149, “Discovery and process development of a novel TACE inhibitor for the topical treatment of psoriasis” (Bioorg Med Chem, 2018)
